Assay results taken from ChEMBL document CHEMBL1201862, “PubChem BioAssay data set” (2004).
The source made the active and inactive calls.

Assays:
Type in all cases: functional
[1] = toxicity toward HepG2 liver cells – cell-based, plate reader, cherry-pick, antagonist series, cytotoxicity control, dose response (AID 743416)
[2] = blockade of melanocortin 4 receptor signaling – cell-based, plate reader, cherry pick, counter-screen for LGR2 antagonist project, dose response (AID 743444);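 further: transfected HEK 293 cells stimulated with alpha-MSH peptide; potency of inhibitors of the alpha-MSH evoked signal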
[3] = blockers of bursicon-stimulated LGR2 cAMP reporter – cell-based, HEK293, CRE-luciferase reporter, cherry pick, set 2, dose response (AID 743343);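 further: transfected cells were stimulated with diluted bursicon conditioned medium after compound addition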
[4] = viability loss in HEK293 cells – cell-based, plate reader, cherry-picked samples, cytotoxicity control, dose response (AID 743446)
fMet-Leu-Phe receptor = molecular target: T1, fMet-Leu-Phe receptor (Homo sapiens, UniProt P21462); assay: formyl peptide receptor binders – dose response (AID 519)
T1 sequence (P21462 whole entry): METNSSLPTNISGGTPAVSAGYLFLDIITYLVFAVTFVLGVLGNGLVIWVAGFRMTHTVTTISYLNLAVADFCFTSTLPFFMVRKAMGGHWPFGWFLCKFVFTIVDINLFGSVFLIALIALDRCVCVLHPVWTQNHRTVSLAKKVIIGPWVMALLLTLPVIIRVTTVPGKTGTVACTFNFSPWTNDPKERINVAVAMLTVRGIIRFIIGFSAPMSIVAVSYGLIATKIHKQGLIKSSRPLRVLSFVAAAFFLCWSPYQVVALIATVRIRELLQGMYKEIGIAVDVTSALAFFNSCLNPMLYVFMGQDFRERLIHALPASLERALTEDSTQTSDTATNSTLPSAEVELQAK

Fatty acid synthase [5] = molecular target: T2, Fatty acid synthase (Homo sapiens, UniProt P49327); assay: inhibition of human FAS-TE enzyme activity – biochemical, endpoint fluorescence intensity, uHTS hits, dose response (AID 624327);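 further: fluorescence from hydrolysis of an O-methyl fluorescein acyl ester substrate by the enzyme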
Fatty acid synthase [6] = molecular target: T2, Fatty acid synthase; assay: inhibition of human FAS-TE enzyme activity – biochemical, kinetic fluorescence intensity, dose response (AID 624326);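 further: rate of fluorescence rise from hydrolysis of a fluorogenic O-methyl fluorescein ester substrate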
Orexin receptor type 2 [7] = molecular target: T3, Orexin receptor type 2 (Homo sapiens, UniProt O43614); assay: Counterscreen assay for antagonists of the orexin 1 receptor (OX1R; HCRTR1): Homogeneous Time Resolved Fluorescence (HTRF)-based cell-based dose response assay for antagonists of the orexin 2 receptor (OX2R; HCRTR2), run by assay provider.
T3 sequence (O43614 whole entry): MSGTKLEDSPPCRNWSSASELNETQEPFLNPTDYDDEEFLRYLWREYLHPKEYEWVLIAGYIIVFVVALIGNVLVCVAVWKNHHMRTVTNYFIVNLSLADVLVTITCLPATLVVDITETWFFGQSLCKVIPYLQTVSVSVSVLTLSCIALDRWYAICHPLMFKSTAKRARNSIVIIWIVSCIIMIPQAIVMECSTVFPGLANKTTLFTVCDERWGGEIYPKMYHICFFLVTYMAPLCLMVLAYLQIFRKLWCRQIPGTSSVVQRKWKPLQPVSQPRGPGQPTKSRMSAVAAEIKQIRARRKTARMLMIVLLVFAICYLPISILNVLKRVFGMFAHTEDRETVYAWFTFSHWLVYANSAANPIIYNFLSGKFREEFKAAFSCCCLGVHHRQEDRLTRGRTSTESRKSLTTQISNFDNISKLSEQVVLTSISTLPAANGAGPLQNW

CHO-K1 = assay: (§1) Counterscreen for antagonists of the orexin 1 receptor (OX1R; HCRTR1): Homogeneous time resolved fluorescence (HTRF)-based cell-based dose response assay to identify antagonists of the parental CHO-K1 cell line. [Related pubchem assays (depositor defined):AID434989, AID435008, AID463079, AID485270, AID492963, AID492964, AID492965, AID493232, AID504699, AID504701]; settings: Cricetulus griseus
[8] = molecular target: T4, Orexin/Hypocretin receptor type 1 (Homo sapiens, UniProt O43613); assay: Homogeneous Time Resolved Fluorescence (HTRF)-based cell-based high throughput dose response assay for antagonists of the orexin 1 receptor (OX1R; HCRTR1). [Related pubchem assays (depositor defined):AID434989, AID435008, AID463079, AID485270, AID492963, AID492964, AID492965, AID493232, AID504717, AID504718]
T4 sequence (O43613 whole entry): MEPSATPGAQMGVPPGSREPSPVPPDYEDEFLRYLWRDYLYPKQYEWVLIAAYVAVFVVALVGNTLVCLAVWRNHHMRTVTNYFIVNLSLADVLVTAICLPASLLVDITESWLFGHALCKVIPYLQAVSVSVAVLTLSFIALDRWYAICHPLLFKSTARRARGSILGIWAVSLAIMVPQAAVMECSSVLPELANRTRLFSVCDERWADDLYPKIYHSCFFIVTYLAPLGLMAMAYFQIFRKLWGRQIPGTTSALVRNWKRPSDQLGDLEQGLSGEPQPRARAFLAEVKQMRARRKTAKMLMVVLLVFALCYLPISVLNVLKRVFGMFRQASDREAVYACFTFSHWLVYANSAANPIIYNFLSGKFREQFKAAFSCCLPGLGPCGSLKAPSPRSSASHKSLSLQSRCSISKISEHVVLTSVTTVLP

Orexin receptor type 2 [9] = molecular target: T3, Orexin receptor type 2; assay: Counterscreen assay for antagonists of the orexin 1 receptor (OX1R; HCRTR1): Fluorescence-based cell-based dose response assay for antagonists of the orexin 2 receptor (OX2R; HCRTR2), run by assay provider.
[10] = molecular target: T4, Orexin/Hypocretin receptor type 1; assay: Fluorescence-based cell-based high throughput dose response assay for antagonists of the orexin 1 receptor (OX1R; HCRTR1). [Related pubchem assays (depositor defined):AID434989, AID435008, AID463079, AID485270, AID492963, AID492964, AID492965, AID493232, AID504717, AID504718]
[11] = as §1, with “Fluorescence-based” for “Homogeneous time resolved fluorescence (HTRF)-based”, “cell-based high throughput” for “cell-based”, “CHO” for “CHO-K1”

T2 sequence (P49327 whole entry): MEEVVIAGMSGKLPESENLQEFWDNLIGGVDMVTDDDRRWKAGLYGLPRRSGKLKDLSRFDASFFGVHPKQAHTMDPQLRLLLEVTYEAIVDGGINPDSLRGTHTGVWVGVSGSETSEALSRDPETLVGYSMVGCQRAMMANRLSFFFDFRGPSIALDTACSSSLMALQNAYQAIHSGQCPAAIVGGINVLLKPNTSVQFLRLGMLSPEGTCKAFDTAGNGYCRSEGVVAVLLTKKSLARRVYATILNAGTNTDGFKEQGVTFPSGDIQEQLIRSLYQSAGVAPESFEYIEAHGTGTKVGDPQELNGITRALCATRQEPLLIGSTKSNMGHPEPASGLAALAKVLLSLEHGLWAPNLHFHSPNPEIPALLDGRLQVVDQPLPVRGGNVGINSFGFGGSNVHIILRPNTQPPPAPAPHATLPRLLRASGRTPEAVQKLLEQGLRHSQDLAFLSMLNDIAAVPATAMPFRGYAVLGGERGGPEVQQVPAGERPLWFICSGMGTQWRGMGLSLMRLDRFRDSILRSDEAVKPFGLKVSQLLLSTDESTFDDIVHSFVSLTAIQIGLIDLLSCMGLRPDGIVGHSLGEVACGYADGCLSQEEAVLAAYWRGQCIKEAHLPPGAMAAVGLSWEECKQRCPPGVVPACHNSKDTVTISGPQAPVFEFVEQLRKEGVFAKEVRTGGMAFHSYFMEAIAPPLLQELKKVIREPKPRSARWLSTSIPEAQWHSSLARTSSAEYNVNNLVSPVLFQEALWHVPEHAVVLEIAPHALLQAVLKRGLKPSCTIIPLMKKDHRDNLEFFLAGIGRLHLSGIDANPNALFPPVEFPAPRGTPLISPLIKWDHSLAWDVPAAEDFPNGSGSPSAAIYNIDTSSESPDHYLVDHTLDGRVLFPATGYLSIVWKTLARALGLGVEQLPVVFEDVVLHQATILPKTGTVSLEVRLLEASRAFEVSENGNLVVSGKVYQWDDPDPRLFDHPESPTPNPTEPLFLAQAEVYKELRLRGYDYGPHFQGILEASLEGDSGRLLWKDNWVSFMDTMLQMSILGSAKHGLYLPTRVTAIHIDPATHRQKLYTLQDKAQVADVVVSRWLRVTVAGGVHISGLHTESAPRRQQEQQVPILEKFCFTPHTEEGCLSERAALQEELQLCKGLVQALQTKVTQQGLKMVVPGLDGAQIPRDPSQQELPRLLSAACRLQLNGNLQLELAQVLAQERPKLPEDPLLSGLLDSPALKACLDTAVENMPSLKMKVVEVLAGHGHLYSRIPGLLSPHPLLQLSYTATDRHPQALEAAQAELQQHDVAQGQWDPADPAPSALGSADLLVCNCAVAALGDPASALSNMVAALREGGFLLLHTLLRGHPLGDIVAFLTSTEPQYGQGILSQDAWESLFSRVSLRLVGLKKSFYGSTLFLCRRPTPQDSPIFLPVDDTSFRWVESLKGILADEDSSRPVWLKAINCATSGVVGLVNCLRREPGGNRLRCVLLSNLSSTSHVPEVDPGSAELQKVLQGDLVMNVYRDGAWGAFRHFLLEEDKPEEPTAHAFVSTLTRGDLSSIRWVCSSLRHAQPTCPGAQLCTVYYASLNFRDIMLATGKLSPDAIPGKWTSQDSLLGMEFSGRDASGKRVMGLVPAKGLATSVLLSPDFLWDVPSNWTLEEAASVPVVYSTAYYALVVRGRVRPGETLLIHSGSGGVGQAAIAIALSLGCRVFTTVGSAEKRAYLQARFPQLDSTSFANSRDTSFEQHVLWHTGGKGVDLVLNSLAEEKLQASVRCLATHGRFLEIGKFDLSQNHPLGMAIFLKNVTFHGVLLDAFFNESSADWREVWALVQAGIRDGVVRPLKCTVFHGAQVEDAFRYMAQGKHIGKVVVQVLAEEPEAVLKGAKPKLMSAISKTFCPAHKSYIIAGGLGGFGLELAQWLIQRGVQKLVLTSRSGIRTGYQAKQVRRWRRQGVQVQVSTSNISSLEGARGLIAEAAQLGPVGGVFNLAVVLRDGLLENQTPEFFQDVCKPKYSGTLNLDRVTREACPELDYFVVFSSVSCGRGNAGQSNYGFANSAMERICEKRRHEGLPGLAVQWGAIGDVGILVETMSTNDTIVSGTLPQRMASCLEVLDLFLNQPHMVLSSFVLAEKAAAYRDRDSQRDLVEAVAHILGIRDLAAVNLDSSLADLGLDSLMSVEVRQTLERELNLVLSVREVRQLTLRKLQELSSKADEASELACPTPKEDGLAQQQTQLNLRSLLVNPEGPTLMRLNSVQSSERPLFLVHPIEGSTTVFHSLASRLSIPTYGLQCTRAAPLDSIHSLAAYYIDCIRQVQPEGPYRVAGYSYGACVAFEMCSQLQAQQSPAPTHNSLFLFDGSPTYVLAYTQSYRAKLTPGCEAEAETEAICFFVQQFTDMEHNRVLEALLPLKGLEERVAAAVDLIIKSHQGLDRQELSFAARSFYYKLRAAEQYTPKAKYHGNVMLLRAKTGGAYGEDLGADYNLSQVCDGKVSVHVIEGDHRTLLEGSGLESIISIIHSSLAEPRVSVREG

Row | Compound | IC50 (Orexin receptor type 2 [7]) | IC50 (CHO-K1) | IC50 [8] | IC50 (Orexin receptor type 2 [9]) | IC50 [10] | IC50 [11] | other results
1 | COc1ccc2nc(-c3ccc(F)cc3)sc2c1 |  |  |  |  |  |  | AC50 [1]: > 52 µM (inactive); AC50 [2]: 2.35 µM (active); AC50 [3]: 2.55 µM (active); AC50 [4]: > 52 µM (inactive)
2 | Cc1ccc(C(=O)C2=C(O)C(=O)N(c3cc(C)on3)C2c2cccc(Br)c2)cc1 (stereo unspecified) |  |  |  |  |  |  | Ki (fMet-Leu-Phe receptor): > 66.7 µM (inactive)
3 | CN(Cc1cccs1)C(=O)Cn1cnc2cc([N+](=O)[O-])ccc2c1=O |  |  |  |  |  |  | IC50 (Fatty acid synthase [5]): 7.81 µM (active); IC50 (Fatty acid synthase [6]): 5.16 µM (active)
4 | CCCCNC(=O)CCC(=O)NNc1nc2ccccc2c2nc(-c3ccccc3)nn12 | > 50 µM (inactive) | > 66.2 µM (inactive) | 2.69 µM (active) | > 88.8 µM (inactive) | 7.27 µM (active) | > 49.8 µM (inactive) | 
5 | Cc1csc(-c2coc3cc(O)cc(C)c3c2=O)n1 | > 50 µM (inactive) | > 66.2 µM (inactive) | 2.54 µM (active) | > 88.8 µM (inactive) | 10.4 µM (inactive) | > 49.8 µM (inactive) | 
6 | Cc1cc(O)cc2c(=O)c3ccccc3sc12 | 0.009 µM (active) | > 66.3 µM (inactive) | 3.64 µM (active) | > 88.8 µM (inactive) | 8.54 µM (active) | > 49.8 µM (inactive) | 
7 | Cc1nc2c(C#N)cnn2c(O)c1Cc1ccccc1 |  |  |  |  |  |  | Ki (fMet-Leu-Phe receptor): 27.4 µM (inactive)
